Patent US20100311714A1, “1H-IMIDAZO[4,5-c]QUINOLINONE COMPOUNDS” (priority 2009, published 2010)
Like-named read-outs stand apart in the source and are kept apart here.

How the values were obtained:
[1] = biological target: T1, PI3K alfa (Homo sapiens, UniProt P42336); assay: PI3K alpha kinase assay (Kinase-Glo luminescence); assay type: biochemical
T1 construct: His tag (C); made in house; host or cells: baculovirus BV1075; Tn5 (Trichoplusia ni) or TiniPro insect cells
How it was run: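 Kinase-Glo luminescence read of ATP remaining after PI3Kα (10 nM) phosphorylates 10 μg/mL bovine liver phosphatidylinositol with 1 μM ATP, pH 7.5 TRIS, 3 mM MgCl2, 0.05% CHAPS; 60 min at room temperature. IC50 from 4-parameter logistic fit over 8 concentrations.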

[2] = biological target: T2, PI3K delta (Homo sapiens, UniProt O00329); assay: PI3K delta kinase assay (Kinase-Glo luminescence); assay type: biochemical
T2 construct: for the full-length p110-d subunit are generated and fused by overlapping PCR; His tag (C); made in house; host or cells: baculovirus BV1060; Tn5 (Trichoplusia ni) or TiniPro insect cells
T2 sequence (O00329 with tags, fused parts or gaps limits assumed): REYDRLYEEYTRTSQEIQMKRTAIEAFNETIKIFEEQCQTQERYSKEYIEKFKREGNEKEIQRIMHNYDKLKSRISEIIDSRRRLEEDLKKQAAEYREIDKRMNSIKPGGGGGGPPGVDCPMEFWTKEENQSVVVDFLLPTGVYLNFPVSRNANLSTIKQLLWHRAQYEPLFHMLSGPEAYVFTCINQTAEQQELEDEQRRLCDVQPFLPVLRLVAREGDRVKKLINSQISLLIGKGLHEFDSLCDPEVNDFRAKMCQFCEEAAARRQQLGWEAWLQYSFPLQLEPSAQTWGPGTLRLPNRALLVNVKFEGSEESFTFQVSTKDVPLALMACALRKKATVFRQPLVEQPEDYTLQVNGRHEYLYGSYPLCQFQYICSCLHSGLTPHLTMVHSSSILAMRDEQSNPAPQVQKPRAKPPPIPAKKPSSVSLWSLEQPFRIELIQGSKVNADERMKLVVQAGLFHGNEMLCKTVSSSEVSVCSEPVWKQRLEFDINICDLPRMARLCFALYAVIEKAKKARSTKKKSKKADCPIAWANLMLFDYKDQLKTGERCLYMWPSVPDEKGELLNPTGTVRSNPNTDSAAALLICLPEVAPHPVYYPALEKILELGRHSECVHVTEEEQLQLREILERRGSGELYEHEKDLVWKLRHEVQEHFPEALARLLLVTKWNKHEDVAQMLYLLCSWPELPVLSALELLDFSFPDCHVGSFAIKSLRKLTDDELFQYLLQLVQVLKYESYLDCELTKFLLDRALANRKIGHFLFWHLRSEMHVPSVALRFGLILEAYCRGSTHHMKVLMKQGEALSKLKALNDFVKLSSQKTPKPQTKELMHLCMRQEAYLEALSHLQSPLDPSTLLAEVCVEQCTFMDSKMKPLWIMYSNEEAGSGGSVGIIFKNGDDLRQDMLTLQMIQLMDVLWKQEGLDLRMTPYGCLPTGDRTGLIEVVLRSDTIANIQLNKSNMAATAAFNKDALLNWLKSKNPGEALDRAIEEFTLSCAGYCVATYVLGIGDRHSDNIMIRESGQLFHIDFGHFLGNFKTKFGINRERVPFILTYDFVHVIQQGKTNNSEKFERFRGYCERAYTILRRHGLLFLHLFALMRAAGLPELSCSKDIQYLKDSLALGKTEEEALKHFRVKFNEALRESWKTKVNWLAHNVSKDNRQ
How it was run: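 Kinase-Glo ATP-depletion luminescence using 10 nM p85(iSH2)-linker-p110δ full-length His-tag construct from insect cells, with 1 μM ATP and 10 μg/mL phosphatidylinositol in 10 mM Tris pH 7.5, 3 mM MgCl2, 50 mM NaCl, 0.05% CHAPS, 1 mM DTT. 60 min room temperature; IC50 from 4-parameter logistic fit over 8 concentrations.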

T1 sequence (P42336 with tags, fused parts or gaps limits assumed): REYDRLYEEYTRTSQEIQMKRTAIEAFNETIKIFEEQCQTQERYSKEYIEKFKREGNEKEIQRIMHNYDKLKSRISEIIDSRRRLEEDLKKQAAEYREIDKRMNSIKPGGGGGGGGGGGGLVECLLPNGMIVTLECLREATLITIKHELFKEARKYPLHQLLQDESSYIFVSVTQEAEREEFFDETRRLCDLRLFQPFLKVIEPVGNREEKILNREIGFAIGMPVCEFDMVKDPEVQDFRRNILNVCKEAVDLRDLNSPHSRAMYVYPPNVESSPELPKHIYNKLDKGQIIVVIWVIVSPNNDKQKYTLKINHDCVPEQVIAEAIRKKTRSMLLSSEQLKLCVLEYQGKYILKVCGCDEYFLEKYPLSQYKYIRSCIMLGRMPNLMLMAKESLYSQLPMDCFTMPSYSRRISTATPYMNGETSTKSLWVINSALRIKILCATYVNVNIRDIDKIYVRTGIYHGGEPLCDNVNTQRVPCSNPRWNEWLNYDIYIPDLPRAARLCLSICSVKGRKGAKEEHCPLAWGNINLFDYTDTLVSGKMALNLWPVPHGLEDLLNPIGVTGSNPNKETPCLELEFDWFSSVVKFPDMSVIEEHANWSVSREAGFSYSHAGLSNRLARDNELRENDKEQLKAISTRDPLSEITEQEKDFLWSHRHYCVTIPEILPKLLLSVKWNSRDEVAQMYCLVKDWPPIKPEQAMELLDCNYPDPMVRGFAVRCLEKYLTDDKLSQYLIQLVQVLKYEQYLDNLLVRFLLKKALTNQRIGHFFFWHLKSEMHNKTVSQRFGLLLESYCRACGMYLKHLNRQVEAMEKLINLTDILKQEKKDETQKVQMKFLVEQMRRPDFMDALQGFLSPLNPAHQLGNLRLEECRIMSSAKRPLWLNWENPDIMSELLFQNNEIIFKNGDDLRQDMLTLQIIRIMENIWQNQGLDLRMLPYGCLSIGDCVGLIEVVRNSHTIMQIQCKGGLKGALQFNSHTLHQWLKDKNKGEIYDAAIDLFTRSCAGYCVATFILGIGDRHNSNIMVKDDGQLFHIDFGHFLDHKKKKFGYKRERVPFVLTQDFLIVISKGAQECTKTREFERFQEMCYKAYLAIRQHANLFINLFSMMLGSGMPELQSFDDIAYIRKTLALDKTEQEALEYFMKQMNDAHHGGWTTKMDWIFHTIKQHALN

Row | SMILES | IC50 ([1]; read-out: EPK_PI3Kalfa/IC50) [nM] | IC50 ([2]; read-out: EPK_PI3Kdelta/IC50) [nM] | IC50 ([1]; read-out: PI3Kalfa/IC50) [nM] | IC50 ([2]; read-out: PI3Kdelta/IC50) [nM]
1 | CNc1ccc(-c2ccc3ncc4c(c3c2)n(-c2ccc(N(C)CCOC)nc2C)c(=O)n4C)cn1 [Example 15.4, 1-{6-[(2-Methoxy-ethyl)-methyl-amino]-2-methyl-pyridin-3-yl}-3-methyl-8-(6-methylamino-pyridin-3-yl)-1,3-dihydro-imidazo[4,5-c]quinolin-2-one] | 46 | 36 | – | –
2 | CCOc1ccc(-c2ccc3ncc4c(c3c2)n(-c2cccnc2OC)c(=O)n4C)cn1 [Example 1.5, 8-(6-Ethoxy-pyridin-3-yl)-1-(2-methoxy-pyridin-3-yl)-3-methyl-1,3-dihydro-imidazo[4,5-c]quinolin-2-one] | – | – | 40 | 166
3 | Cc1ccc(-n2c(=O)n(C)c3cnc4ccc(-c5cnc6c(ccn6C)c5)cc4c32)c(C)n1 [Example 14.7, 1-(2,6-Dimethyl-pyridin-3-yl)-3-methyl-8-(1-methyl-1H-pyrrolo[2,3-b]pyridin-5-yl)-1,3-dihydro-imidazo[4,5-c]quinolin-2-one] | 16 | 28 | – | –
4 | CNc1ccc(-c2ccc3ncc4c(c3c2)n(-c2ccc(N3CCCC3)nc2C)c(=O)n4C)cn1 [Example 25.1, 3-Methyl-8-(6-methylamino-pyridin-3-yl)-1-(2-methyl-6-pyrrolidin-1-yl-pyridin-3-yl)-1,3-dihydro-imidazo[4,5-c]quinolin-2-one] | 35 | 24 | – | –
5 | CCOc1ccc(-c2ccc3ncc4c(c3c2)n(-c2cccnc2C)c(=O)n4C)cn1 [Example 2.1, 8-(6-Ethoxy-pyridin-3-yl)-3-methyl-1-(2-methyl-pyridin-3-yl)-1,3-dihydro-imidazo[4,5-c]quinolin-2-one] | – | – | 56 | 94
6 | Cc1nc(F)ccc1-n1c(=O)n(C)c2cnc3ccc(-c4cnc(N)c(CO)c4)cc3c21 [Example 7.17, 8-(6-Amino-5-hydroxymethyl-pyridin-3-yl)-1-(6-fluoro-2-methyl-pyridin-3-yl)-3-methyl-1,3-dihydro-imidazo[4,5-c]quinolin-2-one] | 64 | 20 | – | –
7 | CNc1ncc(-c2ccc3ncc4c(c3c2)n(-c2ccc(NC(=O)COC)nc2C)c(=O)n4C)cn1 [Example 20.3, 2-Methoxy-N-{6-methyl-5-[3-methyl-8-(2-methylamino-pyrimidin-5-yl)-2-oxo-2,3-dihydro-imidazo[4,5-c]quinolin-1-yl]-pyridin-2-yl}-acetamide] | 123 | 403 | – | –
8 | COc1ccc(-n2c(=O)n(C)c3cnc4ccc(-c5cnc(N(C)C)nc5)cc4c32)c(Cl)n1 [Example 18.3, 1-(2-Chloro-6-methoxy-pyridin-3-yl)-8-(2-dimethylamino-pyrimidin-5-yl)-3-methyl-1,3-dihydro-imidazo[4,5-c]quinolin-2-one] | 5 | 4 | – | –
9 | COc1cc(-c2ccc3ncc4c(c3c2)n(-c2ccc(N(C)C)nc2C)c(=O)n4C)cnc1CO [Example 19.4, 1-(6-Dimethylamino-2-methyl-pyridin-3-yl)-8-(6-hydroxymethyl-5-methoxy-pyridin-3-yl)-3-methyl-1,3-dihydro-imidazo[4,5-c]quinolin-2-one] | 9 | 24 | – | –
10 | Cc1nc(N(C)C)ccc1-n1c(=O)n(C)c2cnc3ccc(-c4cncc(N)c4)cc3c21 [Example 19.5, 8-(5-Amino-pyridin-3-yl)-1-(6-dimethylamino-2-methyl-pyridin-3-yl)-3-methyl-1,3-dihydro-imidazo[4,5-c]quinolin-2-one] | 65 | 67 | – | –
11 | CNc1ncc(-c2ccc3ncc4c(c3c2)n(-c2ccc(F)nc2C)c(=O)n4C)cc1C(F)(F)F [Example 7.13, 1-(6-Fluoro-2-methyl-pyridin-3-yl)-3-methyl-8-(6-methylamino-5-trifluoromethyl-pyridin-3-yl)-1,3-dihydro-imidazo[4,5-c]quinolin-2-one] | 11 | 3 | – | –
12 | CCNc1cc(-c2ccc3ncc4c(c3c2)n(-c2ccc(OCCOC)nc2C)c(=O)n4C)cnc1C [Example 13.4, 8-(5-Ethylamino-6-methyl-pyridin-3-yl)-1-[6-(2-methoxy-ethoxy)-2-methyl-pyridin-3-yl]-3-methyl-1,3-dihydro-imidazo[4,5-c]quinolin-2-one] | 13 | 15 | – | –
13 | Cc1nc(C(C)(C)O)ccc1-n1c(=O)n(C)c2cnc3ccc(-c4cncc(OC(C)C)c4)cc3c21 [Example 31.9, 1-[6-(1-Hydroxy-1-methyl-ethyl)-2-methyl-pyridin-3-yl]-8-(5-isopropoxy-pyridin-3-yl)-3-methyl-1,3-dihydro-imidazo[4,5-c]quinolin-2-one] | 51 | 14 | – | –
14 | COCCN(C)c1ccc(-n2c(=O)n(C)c3cnc4ccc(-c5cnc(N)c(C(F)(F)F)c5)cc4c32)c(C)n1 [Example 15.1, 8-(6-Amino-5-trifluoromethyl-pyridin-3-yl)-1-{6-[(2-methoxy-ethyl)-methyl-amino]-2-methyl-pyridin-3-yl}-3-methyl-1,3-dihydro-imidazo[4,5-c]quinolin-2-one] | 7 | 7 | – | –
15 | COCC(=O)Nc1ccc(-n2c(=O)n(C)c3cnc4ccc(-c5cncc(N)c5)cc4c32)c(C)n1 [Example 20.1, N-{5-[8-(5-Amino-pyridin-3-yl)-3-methyl-2-oxo-2,3-dihydro-imidazo[4,5-c]quinolin-1-yl]-6-methyl-pyridin-2-yl}-2-methoxy-acetamide] | 50 | 34 | – | –
16 | CCOc1cc(-c2ccc3ncc4c(c3c2)n(-c2cccnc2C)c(=O)n4C)cnc1C [Example 2.22, 8-(5-Ethoxy-6-methyl-pyridin-3-yl)-3-methyl-1-(2-methyl-pyridin-3-yl)-1,3-dihydro-imidazo[4,5-c]quinolin-2-one] | 81 | 61 | – | –
17 | Cc1cc(F)ncc1-n1c(=O)n(C)c2cnc3ccc(-c4cnc(N)c(C(F)(F)F)c4)cc3c21 [Example 16.1, 8-(6-Amino-5-trifluoromethyl-pyridin-3-yl)-1-(6-fluoro-4-methyl-pyridin-3-yl)-3-methyl-1,3-dihydro-imidazo[4,5-c]quinolin-2-one] | 14 | 27 | – | –
18 | CCOc1ccc(-c2ccc3ncc4c(c3c2)n(-c2ccc(NC(=O)COC)nc2C)c(=O)n4C)cn1 [Example 20.2, N-{5-[8-(6-Ethoxy-pyridin-3-yl)-3-methyl-2-oxo-2,3-dihydro-imidazo[4,5-c]quinolin-1-yl]-6-methyl-pyridin-2-yl}-2-methoxy-acetamide] | 162 | 247 | – | –
19 | CCN(C)c1ccc(-n2c(=O)n(C)c3cnc4ccc(-c5ccc(NC)nc5)cc4c32)c(C)n1 [Example 12.1, 1-[6-(Ethyl-methyl-amino)-2-methyl-pyridin-3-yl]-3-methyl-8-(6-methylamino-pyridin-3-yl)-1,3-dihydro-imidazo[4,5-c]quinolin-2-one] | 36 | 15 | – | –
20 | CNc1ncc(-c2ccc3ncc4c(c3c2)n(-c2ccc(N(C)C)nc2C)c(=O)n4C)cn1 [Example 19.1, 1-(6-Dimethylamino-2-methyl-pyridin-3-yl)-3-methyl-8-(2-methylamino-pyrimidin-5-yl)-1,3-dihydro-imidazo[4,5-c]quinolin-2-one] | 11 | 12 | – | –
21 | COc1ccc(-n2c(=O)n(C)c3cnc4ccc(-c5cnc(CO)c(OC)c5)cc4c32)c(C)n1 [Example 11.8, 8-(6-Hydroxymethyl-5-methoxy-pyridin-3-yl)-1-(6-methoxy-2-methyl-pyridin-3-yl)-3-methyl-1,3-dihydro-imidazo[4,5-c]quinolin-2-one] | 16 | < 3 | – | –
22 | COCCOc1ccc(-n2c(=O)n(C)c3cnc4ccc(-c5cnc(COC)c(OC)c5)cc4c32)c(C)n1 [Example 22.3, 1-[6-(2-Methoxy-ethoxy)-2-methyl-pyridin-3-yl]-8-(5-methoxy-6-methoxymethyl-pyridin-3-yl)-3-methyl-1,3-dihydro-imidazo[4,5-c]quinolin-2-one] | 164 | 56 | – | –
